Legend:
[1] = system: type II collagen-induced arthritis; assay: type II collagen-induced arthritis model; assay type: in vivo, DBA/1 strain mouse; conditions: for bone destruction score: 26th day after the secondary sensitization
Description: A solution (4 mg/ml) of bovine joint cartilage type II collagen in diluted hydrochloric acid was mixed with Freund' s complete adjuvant of the same volume to prepare an emulsion. As a primary sensitization, this emulsion was injected intra-dermally into tail root site of DBA/1 strain mouse at a dose of 100 µl (corresponding to 200 µg of the type II collagen per mouse). After 21 days from the primary sensitization, 100 µl of this emulsion was injected intra-dermally into a tail root site of the mouse again (secondary sensitization). […] 5% carboxymethyl cellulose and a nonsteroidal anti-inflammatory drug was suspended in 1% methyl cellulose. With regard to the confirmation of onset of arthritis, the stage where swelling at the site of joint accompanied by erythema was defined as the onset of arthritis. With regard to degree of the arthritis, scoring was conducted for each paw according to the evaluating criterion for arthritis grade as mentioned below and the total point for four paws was used as an arthritic score. • 0: no change • 1: weak swelling and weak erythema were observed • 2: weak swelling and erythema were observed • 3: strong swelling and erythema were observed • 4: strong swelling and erythema accompanied by bone erosion were observed Then, on the 26th day after the secondary sensitization, X-ray photographs of the joints of four paws were taken.

[2] = system: hepatic allotransplantation; conditions: rats; Surg. Today, 26, 419-426(1996); cited from earlier work
[3] = system: adjuvant-induced arthritis; assay: adjuvant-induced arthritis model; assay type: in vivo, rat
Description: A suspension (0.6 mg/100 µl) of Mycobacterium butyricum (adjuvant) in liquid paraffin was injected subcutaneously into a left hind paw of rat (male; nine weeks age; body weight being about 240 grams) to induce arthritis.
Incidentally, as a control, a suspension not containing a test compound was administered by the same manner as above.

[4] = diclofenac sodium alone 3 mg/kg, oral once a day
[5] = present compound alone 100 mg/kg, oral once a day

| SMILES | arthritic score [1, 4] | effect of delaying the onset of arthritis [1, 4] | bone destruction score ([1]; diclofenac sodium alone 3 mg/kg) | arthritic score [1, 5] | incidence of arthritis [1, 5] | bone destruction score ([1]; present compound alone 100 mg/kg) | incidence of arthritis ([1]; present compound alone 200 mg/kg, oral once a day, tendency = nearly as control, as at 100 mg/kg) | arthritic score ([1]; present compound alone 200 mg/kg, oral once a day, tendency = slight improvement as at 100 mg/kg) | bone destruction score ([1]; present compound alone 200 mg/kg) | immunosuppressive action to hepatic allotransplantation [2] | pathohistological test: bone destruction, edema, etc. ([3]; present compound alone) | edema of left hindpaw (paw volume) ([3]; present compound alone 100 mg/kg, oral once a day from the 14th day after adjuvant) |
| --- | --- | --- | --- | --- | --- | --- | --- | --- | --- | --- | --- | --- |
| O=C(O)Cc1ccccc1Nc1c(Cl)cccc1Cl [diclofenac sodium, reference compound] | improvement in the arthritic score was recognized | no effect of delaying the onset of arthritis was recognized | a suppressive effect was recognized but the instant effect was far weaker than in the case of the combination administration |  |  |  |  |  |  |  |  |  |
| COc1ccc(/C=C/CCCCOc2cccc(OCCCCC(=O)O)c2CCC(=O)O)cc1 [the present compound, 3-[1-[6-(4-methoxyphenyl)hex-5E-enyl]oxy-3-(4-carboxylbutyl)oxybenzen-2-yl]propionic acid] |  |  |  | improvement was recognized slightly | nearly the same proceeding as in the control group | no suppressive effect was recognized at all | Such a tendency was unchanged | Such a tendency was unchanged | the suppressive effect was hardly recognized | shows an immunosuppressive action | nearly no suppressive effect | nearly no suppressive effect on edema was recognized |

Source: EP0891772A2, “Therapeutic agent for rheumatic disease comprising nonsteroidal anti-inflamatory drug and phenylpropionic acid derivative” (SANTEN PHARMACEUTICAL CO., LTD., priority 1997, dated 1999)
